Data on one molecule can be found in patent US9522128B2 (FUNDACION PARA LA INVESTIGACION BIOMEDICA DEL HOSPITAL …, priority 2008, dated 2016).

For series [1], the system named is primary cultures of proximal tubular cells. The series is described as follows: Mitochondrial activity using MTT reduction. Type of series: cell-based, pig. The settings on record: presence of cilastatin with nephrotoxics.
Protocol: Mitochondrial functionality of PTCs was measured by metabolic reduction of 3-(4,5-dimethylthiazole-2-yl)-2,5-diphenyltetrazole bromide (MTT, supplied by Calbiochem), performed by the mitochondrial enzyme succinate dehydrogenase, yielding a blue-colored compound (formazan). […] MTT was subsequently added to each well at a final concentration of 0.5 mg/mL and incubated for 3 hours at 37° C. in the dark. Once this incubation was completed, 100 μL of lysis buffer (20% SDS in 50% N,N-dimethylformamide, pH 4.7) were added, and the plate was incubated overnight at 37° C. in the dark. Absorbance was measured at 595 nm on the following day.
Percent viability was calculated as follows:
Real time MTT reduction was measured in semiconfluent proximal cells seeded in 24-well plates (16 mm in diameter) in which culture medium was replaced by MTT at 0.5 mg/mL of final concentration in PBS. This reduction was determined by measuring absorbance at 595 nm with an Olympus IX70 inverted fluorescence microscope coupled to a photomultiplier controlled from a SLM Aminco 2000 fluorimeter. […] In this test, as in the previous ones, vancomycin was directly added to the plate during measurement of absorbance. […]
Series [2] shares this test system. The settings on record: 24 hours, with cilastatin; vancomycin, cyclosporin, tacrolimus, acetaminophen, cisplatin, gentamicin. The method, then:
Cells were subsequently detached, and the final volume obtained was recorded. Cell lysate was subjected to a thermal shock, for which it was first heated at 100° C. for 5 min and then placed on ice. Each sample was subjected to sudden decompression. Samples were centrifuged at 12000 rpm for 5 min, and supernatant was collected.
For this purpose, PTCs were incubated with the different nephrotoxics under study, and the cumulative intracellular concentration of toxics in PTCs was quantified, in accordance with the procedure described at the start of the Examples.

Series [3] concerns CD3+ lymphocytes (human T cells). The settings on record: cilastatin 200 μg/mL. The method, then: The sample was centrifuged at 120 g and was resuspended in 750 μL of RPMI medium (in the absence of FCS: fetal calf serum) to quantify the number of cells available using trypan blue. One hundred thousand cells per point were distributed.
Incubation was performed for 4 hours at 37° C. Cells were centrifuged for 6 minutes at 1200 rpm. The precipitate was resuspended in 100 μL of buffer (10 mmol/L HEPES, 150 mmol/L NaCl, 5 mmol/L KCl, 1 mmol/L Mg Cl2, 1.8 mmol/L CaCl2) and 5 μL of annexin-V. It was incubated in the dark for 10 minutes.
Intensity of green fluorescence of cells was quantified as displacement in the logarithmic scale from control (cells growing in 10% FCS) versus the number of cells analyzed. Cell debris was excluded from the analysis.

The test system of series [4] is Wistar rats. The series is described as follows: Preliminary in vivo study of cilastatin nephroprotection against acute toxic renal failure caused by cisplatin. More on the design: species or system rat. The note with it: cisplatin 5 mg/kg plus cilastatin 75 or 150 mg/kg every 12 hours intraperitoneal. The method, then:
Five animals, each subjected to a different treatment regimen, were preliminarily used.
At the time of killing, animals were weighed and anesthetized with ketamine (10 mg/kg) and diazepam (4 mg/kg). Once anesthetized, blood was drawn by cannulation of the abdominal aorta at the bifurcation level. This blood was kept for 30 minutes at 37° C. and subsequently for 1 hour at 4° C., after which it was centrifuged at 2000 rpm for 15 minutes at 4° C. This allowed for separation of blood serum, which was stored at −80° C. until use.

For series [5], the system named is Wistar rats. The series is described as follows: Extended in vivo study of cilastatin nephroprotection against acute toxic renal failure caused by cisplatin. The text has this: A total of 28 animals were used, which were randomized into 4 groups with a sample size n=6-8 animals per group.
Throughout the period, animals were given free access to both water and feed (standard diet) in a controlled light, temperature, and humidity environment. One day before killing, animals were introduced into metabolic cages with free access to feed and water ad libitum to collect 24-hour urine, in order to quantify urine output and protein concentration.
At the time of killing, animals (previously weighed) were anesthetized in the experimental operating room with ketamine (10 mg/kg) and diazepam (4 mg/kg) and were drawn blood by cannulation of the abdominal aorta at the bifurcation level. Blood was first incubated for 30 minutes at 37° C., and then for one hour at 4° C. Subsequent centrifugation at 2000 rpm for 15 minutes at 4° C. allowed for obtaining blood serum, which was frozen at −80° C. until use. […] Kidneys were subsequently removed, decapsulated, and kept in cold saline during their handling to minimize tissue degradation. Kidneys (right and left) were weighed and were subsequently handled similarly. […] The rest of the right kidneys, as well as left kidneys, were separated into cortex and medulla, and both samples were frozen in liquid nitrogen and stored at −80° C. until use.
Hemodynamic variables and serum and urine kidney function parameters (FIG. 14) were measured using a Dimension RxL autoanalyzer from Dade-Behring according to manufacturer instructions.
This time, urine samples were taken before killing, as indicated in the section describing the procedure.

The text on series [6]:
No data have been reported for humans. […] The resulting plot is shown in FIG. 14 (diamonds: rabbit data; triangles: rat data; blank squares: data from pig experiments; filled squares including a white point: data from the summary of product characteristics for humans).

The test system of series [7] is primary cultures of proximal tubular cells. The note with it: 48 h, 11 nephrotoxics.
Series [8] has the same test system. The note with it: cilastatin added to cultures with nephrotoxics, 24 hours.
Protocol: Cells shed to the supernatant were collected by direct aspiration using an automatic pipet, and adherent cells were separated from the culture plate by trypsinization.
The PTCs thus obtained were separately fixed and permeabilized with 70% ethanol and stored at −20° C. After removing ethanol, cells were washed two times with PBS.
The count was performed in a FACScan cytometer (Beckton Dickinson) equipped with a simple argon ion laser. Windows were fixed based on the characteristics of FSC (size), SSC (complexity), FL2-H (height), FL2-A (area), and FL2-W (width). The latter two were used to rule out cell doublets. Analysis was performed using WinMDI 2.9 software.
For series [9] the test system is unchanged. The note with it: co-incubation with cilastatin; 24 hours aggression (12 hours for cisplatin), long-term survival 7 days.
Series [10] relates to renal degradation of imipenem. The settings on record: with cilastatin; cited from earlier work.
The test system of another series is tubular endothelium. The note with it: dose of 1 g/kg/day; Sack 1985; cited from earlier work.
The target of another series is DHP-I (Homo sapiens, UniProt P16444). The settings on record: Koller 1985, Campbell 1988; cited from earlier work.
In a further series the test system is humans. The settings on record: period immediately subsequent to transplant; cited from earlier work.
For series [11], the system named is cultures of cells of the proximal tubular epithelium. The series is described as follows: Scanning electron microscopy of cell morphology. The note with it: 11 days; cyclosporin A 1 μg/mL without or with cilastatin 200 μg/mL.
The subject of series [12] is primary cultures of proximal tubular cells (PTCs). The series is described as follows: Cell growth dynamics in primary culture of proximal tubular cells.

DHP-I, sequence (P16444 17-385): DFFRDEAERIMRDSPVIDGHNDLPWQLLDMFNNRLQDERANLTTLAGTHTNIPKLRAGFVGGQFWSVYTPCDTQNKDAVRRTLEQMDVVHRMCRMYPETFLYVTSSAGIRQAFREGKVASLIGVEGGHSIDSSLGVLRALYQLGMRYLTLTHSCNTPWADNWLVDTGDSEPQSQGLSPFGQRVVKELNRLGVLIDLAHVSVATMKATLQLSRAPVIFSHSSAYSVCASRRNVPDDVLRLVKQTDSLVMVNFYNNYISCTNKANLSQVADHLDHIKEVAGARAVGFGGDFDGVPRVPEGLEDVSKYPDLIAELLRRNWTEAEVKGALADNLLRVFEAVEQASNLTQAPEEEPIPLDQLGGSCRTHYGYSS

In the case of `CC1(C)C[C@@H]1C(=O)N/C(=C\CCCCSC[C@H](N)C(=O)O)C(=O)[O-].[Na+]` (relative stereo) [cilastatin, monosodium salt of [R—[R*,S*—(Z)]]-7-[(2-amino-2-carboxyethyl)thio]-2-[[(2,2-dimetylcyclopropyl)carbonyl]amino]-2-heptenoic acid], the “restoration of mitochondrial electronic transfer capacity” value in series [1] was “totally or partially restores”. Moreover, the “intracellular accumulation of nephrotoxics” value in series [2] was “interferes with intracellular administration of all nephrotoxics tested”. Besides, the “protective effect on cyclosporin A induced T cell death” value in series [3] was “absence of a protective effect”. In the series with Wistar rats [4], the “weight loss or changes in plasma creatinine” value was “no significant weight loss or changes in plasma creatinine”. In addition, in the series with Wistar rats [5] (cilastatin 75 mg/kg every 12 hours without cisplatin), the “increase of mean weight” value is listed as “approximately 14 grams”. Also, the “proteinuria and urinary osmolality” value in the series with Wistar rats [5] (cisplatin 5 mg/kg, cilastatin 75 mg/kg every 12 hours intraperitoneal) is on record as “completely reversed the values to normal levels”. Moreover, the “FINAL WEIGHT” value with Wistar rats [5] (end of the extended study (5 days), mean ± standard error) worked out at 273 ± 7. The “plasma level up to which the dose/plasma level relationship is linear” value in [6] (all species) is reported as “around 800 mg/L”. The minimum effective dose in series [6] (estimated) is 10 mg/kg body weight. Besides, the “estimated minimum nephroprotective dose in humans” value in series [6] (mean value for a human adult) is listed as 750 mg/day. Also, in [7], the “induction of apoptosis (nucleosomes) on co-incubation of nephrotoxics plus cilastatin” value is recorded as “induction of apoptosis ceases or is significantly reduced”. Also, the “number of dead cells (sloughed to supernatant, anoikis)” value in [8] is given as “reduced in all cases the number of dead cells”. Further, the “cell growth / colony-forming units after nephrotoxic aggression (crystal violet)” value in series [9] is reported as “totally or partially restores cell growth”. Moreover, the “urinary excretion rate of imipenem” value in series [10] was “up to 70 % of the initial imipenem dose administered”. Besides, the “sign of renal toxicity” value in the series with tubular endothelium is recorded as “could cause sloughing of tubular endothelium”. Further, on DHP-I, the “conversion of leukotriene D4 to leukotriene E4” value is “strongly inhibited”. Further, in the series with humans, the “nephrotoxicity induced by CsA” value is “may effectively counteract”. In addition, the “cell morphology by scanning electron microscopy” value in [11] is listed as “these changes do not usually occur”. Also, the “effect of co-incubation with cilastatin on the effect of nephrotoxics on cell growth” value in series [12] (cilastatin 200 μg/mL with cyclosporin A or tacrolimus) is given as “partially prevents”. Also, in [12] (increasing cilastatin doses for 14 days, up to almost 10 times plasma concentrations reached in vivo), the “effect upon growth dynamics, cell confluence, or monolayer morphology” value is reported as “No significant effect”. Also, in series [12] (with cyclosporin), the “day of culture from which cell growth recovers with cilastatin” value was ≥ 11 days. In addition, the “time from which cell growth recovers with cilastatin” value in [12] (with tacrolimus (FK-506), decrease from day 7) is “from the same time”.
